Source: PubChem BioAssay (NCI)
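Tested at 5 concentrations; 48 h exposure; 96-well plates; endpoints linearly interpolated, else capped at highest concentration. The concentration for 50% growth inhibition is given as GI50. TGI denotes the concentration required for complete inhibition of growth.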

What was measured:
Assay in all cases: growth of human tumour cells (NCI), 48 h
[1] = test system: MALME-3M melanoma
[2] = test system: SF-268 CNS
[3] = test system: LOX IMVI melanoma
[4] = test system: HCC-2998 colon
[5] = test system: HOP-62 NSCLC
[6] = test system: K-562 leukemia
[7] = test system: 786-0 renal
[8] = test system: NCI-H522 lung
[9] = test system: SNB-19 CNS
[10] = test system: HS 578T breast

## Cn1cnc([N+](=O)[O-])c1Sc1nc2ccccc2[nH]1
[1]
  TGI: 35 µM
[2]
  TGI: 38.5 µM
[3]
  TGI: 51 µM
[4]
  TGI: 26.9 µM
[5]
  TGI: > 100 µM
[6]
  TGI: > 100 µM
[7]
  TGI: > 100 µM

## C/C(=N\NC(=S)NC(CCC(=O)O)C(=O)O)c1ccccn1 (centres undefined)
[1]
  TGI: > 100 µM
[2]
  TGI: > 100 µM
[3]
  TGI: > 100 µM
[4]
  TGI: > 100 µM
[8]
  TGI: > 100 µM
[9]
  TGI: > 100 µM
[5]
  TGI: > 100 µM
[6]
  TGI: > 100 µM
[7]
  TGI: > 100 µM

## OCC#Cc1ccccc1C#Cc1ccccc1
[2]
  GI50: 17.1 µM
  TGI: 35.3 µM
[3]
  GI50: 13.2 µM
  TGI: 27.6 µM
[8]
  GI50: 24.1 µM
  TGI: 69 µM
[9]
  GI50: 20.6 µM
  TGI: 38.7 µM
[5]
  GI50: 13.9 µM
  TGI: 26.8 µM
[10]
  GI50: 18.3 µM
  TGI: 43.7 µM
[6]
  GI50: 26 µM
  TGI: > 100 µM
[7]
  GI50: 14.6 µM
  TGI: 27.7 µM

## COc1cc2c3c(n(C)c(=O)c2cc1OC)-c1cc2c(cc1/C3=C\CCN)OCO2
[1]
  GI50: 0.239 µM
  TGI: 2.07 µM
[2]
  GI50: 0.167 µM
  TGI: 16.6 µM
[3]
  GI50: < 0.01 µM
  TGI: 0.194 µM
[8]
  GI50: 0.851 µM
  TGI: > 100 µM
[9]
  GI50: 0.394 µM
  TGI: 16.3 µM
[5]
  GI50: 0.067 µM
  TGI: 5.8 µM
[10]
  GI50: 2.01 µM
[6]
  GI50: 0.0397 µM
  TGI: 1.5 µM
[7]
  GI50: 0.132 µM
  TGI: 6.21 µM

## CC(=O)/C(=C\c1cccc([N+](=O)[O-])c1)C(=O)Nc1ccccc1C
[1]
  TGI: > 100 µM
[2]
  TGI: > 100 µM
[3]
  TGI: > 100 µM
[4]
  TGI: > 100 µM
[8]
  TGI: > 100 µM
[9]
  TGI: > 100 µM
[5]
  TGI: > 100 µM
[6]
  TGI: > 100 µM
[7]
  TGI: > 100 µM

## C#CC1(O)CCC2C3CCc4cc(Oc5nc(F)nc(-c6c7ccccc7c7sc8ccccc8n67)n5)ccc4C3CC[C@@]21C (some centres undefined)
[1]
  TGI: > 100 µM
[2]
  TGI: > 100 µM
[4]
  TGI: > 100 µM
[8]
  TGI: 43.7 µM
[9]
  TGI: > 100 µM
[5]
  TGI: > 100 µM
[6]
  TGI: > 100 µM
[7]
  TGI: > 100 µM

## CC(C)=Cc1cc(C(=O)Nc2ccc(Cl)c(Cl)c2)nc(N)n1
[1]
  TGI: > 100 µM
[2]
  TGI: > 100 µM
[3]
  TGI: > 100 µM
[4]
  TGI: > 100 µM
[9]
  TGI: > 100 µM
[5]
  TGI: > 100 µM
[6]
  TGI: > 100 µM
[7]
  TGI: > 100 µM

## CC(C)OP(=O)(OC(C)C)C(=NCCN=C(NNc1ccc([N+](=O)[O-])cc1)P(=O)(OC(C)C)OC(C)C)NNc1ccc([N+](=O)[O-])cc1
[1]
  TGI: > 100 µM
[2]
  TGI: > 100 µM
[3]
  TGI: > 100 µM
[4]
  TGI: > 100 µM
[9]
  TGI: > 100 µM
[5]
  TGI: > 100 µM
[6]
  TGI: > 100 µM
[7]
  TGI: > 100 µM

## Cn1c2ccccc2c2cc(-c3ccccc3)c3c(c21)C(=O)c1ccccc1C3=O
[1]
  TGI: 49.6 µM
[2]
  TGI: 91.8 µM
[4]
  TGI: > 100 µM
[8]
  TGI: 48.4 µM
[9]
  TGI: > 100 µM
[5]
  TGI: > 100 µM
[6]
  TGI: 73.1 µM
[7]
  TGI: 35.7 µM

## COc1cc(NCc2ccc3oc(=O)c(-c4ccccc4)nc3c2)cc(OC)c1OC
[2]
  TGI: > 10 µM
[3]
  TGI: > 10 µM
[4]
  TGI: > 10 µM
[8]
  TGI: > 10 µM
[9]
  TGI: > 10 µM
[5]
  TGI: > 10 µM
[10]
  TGI: > 10 µM
[6]
  TGI: > 10 µM
[7]
  TGI: > 10 µM
